Data from patent US8227470B2, “Combination treatment of solid cancers with antimetabolites and tyrosine kinase inhibitors” (AB Science, priority 2007, dated 2012).
Entries after “also recorded” stand apart in the source; their conditions may differ. Each block holds one compound with its values, some of them ahead of it.

Experiments:
[1] = system: ovarian tumour cell lines; assay: WST-1 proliferation assay, ovarian lines with paclitaxel; type: cell-based
Procedure: (§1) Pancreatic, colon and prostate cancer cell lines (generous gift from Dr. Juan Iovanna, INSERM U624, Marseille, France), breast and ovarian cancer cell lines (generous gift from Dr. Patrice Dubreuil, UMR 599 INSERM, Marseille, France), and lung cancer cell line (generous gift from Pr. Christian Auclair, UMR 8113 CNRS) were cultured as monolayers in RPMI 1640 medium containing L-glutamine supplemented with 100 U/mL penicillin and 100 μg/mL streptomycin, and 10% v/v heat-inactivated foetal calf serum (AbCys Lot SO2823S1800) under standard culture conditions (5% CO2, 95% air in humidified chamber at 37° C.).
(§2) During proliferation assay, all cells were grown in medium containing 1% FCS.
(§3) Colorimetric cell proliferation and viability assay (reagent WST-1 purchased from Roche cat N° 1644807)
(§4) The cells were washed once and resuspended in RPMI 1% FCS. […]
(§5) For treatment with combination of AB1010 and gemcitabine, the cells were first resuspended in medium RPMI 1% FCS containing AB1010 at the concentrations of 0, 2, 5 and 10 μM. […] The absorbance of the samples was measured at 490 nm using an EL800 Universal microplate reader (Bio-Tek Instruments Inc.).
(§6) Each sample was done in duplicate, the absorbance values were transferred to an excel file, the average and standard deviation of the duplicates were calculated and expressed as a percentage of the proliferation obtained in absence of treatment. […]

BxPC-3 = assay: WST-1 cell proliferation and viability assay; type: cell-based
Procedure: as §1, §2, §3
(§7) The cells were washed once and resuspended in RPMI 1% FCS. Cells at 1.10^4/50 μl were plated per well of a 96 well plate.
(§8) Drug dilutions were prepared in a 96 well plate and obtained by sequential dilutions of AB1010 or gemcitabine in RPMI 1.
(§9) Treatment was started by the addition of 50 μl of a 2× concentrated drug solution to a final volume of 100 μl.
(§10) For treatment with combination of AB1010 and gemcitabine, the cells were first resuspended in medium RPMI 1% FCS containing AB1010 at the concentrations of 0, 2, 5 and 10 μM. 1.10^4 cells/50 μl were plated per well of a 96 wells plate and the plates placed in the incubator o/n before treatment with cytotoxic agents. Cytotoxic agent treatment was initiated by addition of 50 μl of a 2× drug dilution (and containing the respective AB1010 drug concentration) to a final volume of 100 μl. AB1010 final concentrations remained 0, 2, 5 and 10 μM. After incubating for 48-72 hours at 37° C., 10 μl of a ½ dilution of WST-1 reagent was added to each well and the plates were returned to the incubator for an additional 4 hours. The absorbance of the samples was measured at 490 nm using an EL800 Universal microplate reader (Bio-Tek Instruments Inc.).
(§11) A background control without cells was used as a blank for the ELISA reader.
(§12) The positive control of the assay corresponds to the cell proliferation obtained in the absence of drug treatment (100% proliferation).
(§13) Each sample was done in duplicate, the absorbance values were transferred to an excel file, the average and standard deviation of the duplicates were calculated and expressed as a percentage of the proliferation obtained in absence of treatment.
(§14) To determine the IC50 concentration of gemcitabine on pancreatic cell lines, the cells were grown in 1% FCS and exposed to different doses of the drug.
(§15) To determine the IC50 concentration of gemcitabine used in association with AB1010, pancreatic cell lines grown in 1% FCS were pre-treated with AB1010 for about 12-16 hours before being exposed to different doses of the gemcitabine.

Capan-2 = assay: WST-1 cell proliferation and viability assay; type: cell-based
Procedure: as §1, §2, §3, §7, §8, §9, §10, §11, §12, §13, §14, §15

Panc-1 = assay: WST-1 cell proliferation and viability assay; type: cell-based
Procedure: as §1, §2, §3, §7, §8, §9, §10, §11, §12, §13, §14, §15

Mia Paca-2 = assay: WST-1 cell proliferation and viability assay; type: cell-based; settings: for sensitization to gemcitabine by pre-treatment: MiaPaca-2, pre-treatment 12-16 hours (AB1010 5 and 10 μM; STI571 up to 10 μM) before gemcitabine
Procedure: as §1, §2, §3, §7, §8, §9
as §10, with “AB1010 final concentrations remained 0, 2, 5 and 10 μM. After incubating for 48-72 hours at 37° C., 10 μl of a ½ dilution of WST-1 reagent was added to each well and the plates were returned to the incubator for an additional 4 hours.” left out
A background control without cells was used as a blank for the ELISA reader. […]
as §6

FAK kinase [2] = target: T1, FAK kinase (Homo sapiens, UniProt Q05397); assay: SelectScreen kinase Profiling (Invitrogen), purified kinases; type: biochemical; settings: inhibitor at 1 μM (1,000 nM); for inhibition at 1 µM: read-out: Percentage of inhibition of FAK kinase activity
T1 sequence (Q05397 whole entry): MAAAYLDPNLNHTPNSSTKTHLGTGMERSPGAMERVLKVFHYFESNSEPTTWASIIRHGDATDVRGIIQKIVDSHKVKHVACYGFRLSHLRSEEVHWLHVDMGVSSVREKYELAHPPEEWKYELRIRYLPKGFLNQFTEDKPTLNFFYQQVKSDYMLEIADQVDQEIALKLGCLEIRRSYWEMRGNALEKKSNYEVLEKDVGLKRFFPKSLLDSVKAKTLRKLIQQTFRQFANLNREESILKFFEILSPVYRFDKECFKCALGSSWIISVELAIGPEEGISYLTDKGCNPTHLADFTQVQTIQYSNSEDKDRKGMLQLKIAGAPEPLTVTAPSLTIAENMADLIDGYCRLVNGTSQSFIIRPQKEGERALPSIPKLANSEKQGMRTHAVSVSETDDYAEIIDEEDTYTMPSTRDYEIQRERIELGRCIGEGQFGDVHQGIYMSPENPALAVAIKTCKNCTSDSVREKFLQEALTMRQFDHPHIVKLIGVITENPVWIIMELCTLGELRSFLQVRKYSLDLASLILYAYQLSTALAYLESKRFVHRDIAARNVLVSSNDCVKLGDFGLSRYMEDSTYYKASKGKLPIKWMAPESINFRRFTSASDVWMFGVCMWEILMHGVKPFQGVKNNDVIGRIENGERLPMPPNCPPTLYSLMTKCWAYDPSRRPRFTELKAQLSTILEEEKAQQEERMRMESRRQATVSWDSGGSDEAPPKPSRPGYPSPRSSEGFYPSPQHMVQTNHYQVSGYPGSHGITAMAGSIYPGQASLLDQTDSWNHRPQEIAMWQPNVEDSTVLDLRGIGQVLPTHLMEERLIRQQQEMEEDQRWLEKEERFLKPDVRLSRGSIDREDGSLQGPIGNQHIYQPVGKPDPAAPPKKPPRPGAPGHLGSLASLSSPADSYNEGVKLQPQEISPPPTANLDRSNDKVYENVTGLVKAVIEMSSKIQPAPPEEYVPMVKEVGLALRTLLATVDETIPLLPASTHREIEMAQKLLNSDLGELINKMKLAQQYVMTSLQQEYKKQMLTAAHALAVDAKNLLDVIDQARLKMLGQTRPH

FAK kinase [3] = target: T1, FAK kinase; assay: Western blot of FAK activation status (anti PY / anti phospho FAK); type: cell-based; settings: FIG. 3B
Text: Pancreatic tumour cells lines are described to express high level of the non-receptor tyrosine kinase FAK that contributes to resistance to gemcitabine. […] By the use of either anti PY or anti phospho FAK antibodies, we studied by western blot assay the activation status of FAK kinase.

breast tumour cell lines = assay: WST-1 proliferation assay, breast lines with docetaxel; type: cell-based
Procedure: as §1, §2, §3, §4, §5, §6

[4] = system: human mast cell line expressing the JMΔ27 mutated c-kit; assay: Apoptosis induction in mast cell line; type: cell-based; settings: 0.1 μM, after 48 hours; control cells 10% apoptotic
Procedure: (§16) In this experiment, after 48 hours, 0.1 μM AB1010 induced apoptosis of approximately 50% versus control cells in which 10% of cells were apoptotic. In addition, a separate cell line (Ba/F3-derived) expressing JMΔ27 was tested and apoptosis was induced to a level of approximately 85%.

[5] = system: cell line (Ba/F3-derived) expressing JMΔ27; assay: Apoptosis induction in Ba/F3-derived cell line; type: cell-based
Procedure: as §16

[6] = system: prostate DU145, and C4-2 cell lines; assay: WST-1 proliferation assay, sensitization to gemcitabine; type: cell-based; settings: AB1010 pre-treatment
Procedure: as §1, §2, §3, §7, §10, §13
(§17) In order to evaluate the ability of AB1010 to sensitize other tumour types to gemcitabine, we performed similar studies on prostate, lung, ovarian and colon tumour cell lines.

[7] = system: lung A549 and H1299 cell lines; assay: as above; type: cell-based; settings: AB1010 pre-treatment
Procedure: as §1, §2, §3, §7, §10, §13, §17

[8] = system: ovarian OVCAR-3 cell lines; assay: as above; type: cell-based; settings: AB1010 pre-treatment
Procedure: as §1, §2, §3, §7, §10, §13, §17

[9] = system: rectum HRT-18, and colon Caco-2 and SW-480 cell lines; assay: as above; type: cell-based; settings: rectum HRT-18, colon Caco-2 and SW-480; AB1010 pre-treatment
Procedure: as §1, §2, §3, §7, §10, §13, §17

colon HT-29 = assay: as above; type: cell-based; settings: colon HT-29, the one resistant line in which sensitivity was not restored
Procedure: as §1, §2, §3, §7, §10, §13, §17

HRT-18 = assay: WST-1 proliferation assay, sensitization to Irinotecan; type: cell-based; settings: most resistant colorectal cell line HRT-18; AB1010 pre-treatment
Procedure: as §1, §2, §3, §7
[…] The absorbance of the samples was measured at 490 nm using an EL800 Universal microplate reader (Bio-Tek Instruments Inc.).
as §6

SMILES: CC(=O)O[C@H]1C(=O)[C@@]2(C)[C@H]([C@H](OC(=O)c3ccccc3)[C@]3(O)C[C@H](OC(=O)[C@H](O)[C@@H](NC(=O)c4ccccc4)c4ccccc4)C(C)=C1C3(C)C)[C@]1(OC(C)=O)CO[C@@H]1C[C@@H]2O [Paclitaxel, reference compound]
- sensitivity to Paclitaxel ([1]; five ovarian cell lines, drug alone): Three out of the five ovarian cell lines tested exhibit strong sensitivity

- IC50 (BxPC-3; Homo sapiens, BxPC-3, 1% FCS, drug alone, read-out: IC50, inhibition of proliferation): 2 to 20 nM
SMILES: Nc1ccn(C2OC(CO)C(O)C2(F)F)c(=O)n1 (stereo not shown) [gemcitabine, 4-amino-1-[3,3-difluoro-4-hydroxy-5-(hydroxymethyl)tetrahydrofuran-2-yl]-1H-pyrimidin-2-one, reference compound]
- IC50 (Capan-2; Homo sapiens, Capan-2, 1% FCS, drug alone, read-out: IC50, inhibition of proliferation): 2 to 20 nM
- sensitivity to gemcitabine (Panc-1; Panc-1, 1% FCS, drug alone): lack of sensitivity
- sensitivity to gemcitabine (Mia Paca-2; Mia Paca-2, 1% FCS, drug alone): lack of sensitivity

- inhibition at 1 µM (FAK kinase [2]): 21%
- inhibition of FAK autoactivation (FAK kinase [3]): inhibits partially
SMILES: Cc1ccc(NC(=O)c2ccc(CN3CCN(C)CC3)cc2)cc1Nc1nc(-c2cccnc2)cs1 [AB1010, 4-(4-Methyl-piperazin-1-ylmethyl)-N-[4-methyl-3-(4-pyridin-3-yl-thiazol-2-ylamino)-phenyl]-benzamide]
- sensitization to docetaxel (breast tumour cell lines; docetaxel-resistant breast cancer cell lines, AB1010 pre-treatment): good sensitization by AB1010 for 6 out of 11
- sensitization to gemcitabine by pre-treatment (BxPC-3; gemcitabine-sensitive BxPC-3, AB1010 pre-treatment): not observed
- sensitization to gemcitabine by pre-treatment (Capan-2; gemcitabine-sensitive Capan-2, AB1010 pre-treatment): not observed
- sensitization to gemcitabine by pre-treatment (Panc-1; Panc-1, AB1010 5 and 10 μM pre-treatment 12-16 hours before gemcitabine): reverse resistance
- apoptosis induced [4]: approximately 50%
- sensitization to gemcitabine by pre-treatment (Mia Paca-2): reverse resistance
- apoptosis induced [5]: approximately 85%
- restoration of sensitivity to Paclitaxel ([1]; resistant ovarian tumour cell lines, AB1010 pre-treatment): restores sensitivity
- sensitization to gemcitabine [6]: AB1010 sensitizes prostate DU145, and C4-2 cell lines to gemcitabine
- sensitization to gemcitabine [7]: AB1010 sensitizes lung A549 and H1299 cell lines to gemcitabine
- sensitization to gemcitabine [8]: AB1010 sensitizes ovarian OVCAR-3 cell lines to gemcitabine
- sensitization to gemcitabine [9]: AB1010 sensitizes rectum HRT-18, and colon Caco-2 and SW-480
- restoration of sensitivity to gemcitabine (colon HT-29): except one
- sensitization to Irinotecan (CPT-11) (HRT-18): good sensitization

- Percentage of inhibition of FAK kinase activity (FAK kinase [2]): 75%
SMILES: CC(C)(C)n1nc(-c2ccc(Cl)cc2)c2c(N)ncnc21 [PP2]

- inhibition at 1 µM (FAK kinase [2]): 9%
SMILES: Cc1ccc(NC(=O)c2ccc(CN3CCN(C)CC3)cc2)cc1Nc1nccc(-c2cccnc2)n1 [STI571]
- sensitization to gemcitabine by pre-treatment (Mia Paca-2): does not sensitize; also recorded: does not lead to the same result

SMILES: CC(=O)O[C@@]12CO[C@@H]1C[C@H](O)[C@@]1(C)C(=O)[C@H](O)C3=C(C)[C@@H](OC(=O)[C@H](O)[C@@H](NC(=O)OC(C)(C)C)c4ccccc4)C[C@@](O)([C@@H](OC(=O)c4ccccc4)[C@H]21)C3(C)C [Docetaxel, reference compound]
- sensitivity to Docetaxel (breast tumour cell lines; breast cancer cell lines, drug alone): most of the breast cancer cell lines tested exhibit resistance
